The results in this text go back to ChEMBL document CHEMBL1201862, “PubChem BioAssay data set” (2004).

Test systems include 786-0; BT-549; CAKI-1; EKVX; HOP-92; Hs-578T; LOX IMVI; MCF7; MDA-MB-231; MDA-N; OVCAR-4; PC-3; SF-295; SR; T47D; U-251.
Test in all cases: NCI anticancer screen, dose series, 48 h

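Method: 48-hour compound exposure of cells in 96-well plates, five concentrations, linear interpolation of endpoints. The concentration for 50% growth inhibition is given as GI50.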 Activity calls are given as the source filed them. Cut-off read from the data, not from the text of the source: active = GI50 up to about 1.1 µM and inactive = higher. Square brackets hold non-standard residues; d marks the D form. Peptide text beside a SMILES is read from it. * marks the point of attachment. Boc = CC(C)(C)OC(=O)*; Lac = C[CH](O)C(=O)O; OBn = c1ccc(CO*)cc1 Some results are limits rather than exact numbers.

For `COC(=O)C(F)C(Br)C(=O)OC` (stereo unspecified), the GI50 was 2.52 µM (inactive) with 786-0; 16.2 µM (inactive) in the assay on BT-549; 2.35 µM (inactive) in the assay with CAKI-1; 2.19 µM (inactive) in the assay on EKVX; 2.56 µM (inactive) in the assay on HOP-92; 16.6 µM (inactive) with Hs-578T. The GI50 is 6.41 µM (inactive) in the assay with LOX IMVI; 3.42 µM (inactive) in the assay with MCF7; 14.6 µM (inactive) in the assay on MDA-MB-231; 8.51 µM (inactive) in the assay on MDA-N; 3.39 µM (inactive) with OVCAR-4; 3.63 µM (inactive) in the assay with PC-3. The GI50 with SF-295 was 26.4 µM (inactive); with SR it was 1.37 µM (inactive); in the assay with T47D, 2.15 µM (inactive); in the assay on U-251, 3.05 µM (inactive).
With `CCOc1ccc2c(C)cc(=O)oc2c1`, the GI50 in the assay with 786-0, with BT-549, with CAKI-1, in the assay with EKVX, in the assay with HOP-92 and in the assay with Hs-578T was > 100 µM (inactive) throughout. The GI50 with LOX IMVI, in the assay with MCF7, with MDA-MB-231, in the assay with MDA-N, with OVCAR-4 and in the assay on PC-3 was > 100 µM (inactive) throughout. In addition, the GI50 in the assay with SF-295, in the assay with SR, in the assay on T47D and in the assay with U-251 was > 100 µM (inactive) in each case.
On to `O=C1CSC(/C=C/c2ccccc2)N1c1nc2cc3sc(N4C(=O)CSC4/C=C/c4ccccc4)nc3cc2s1` (stereo unspecified), for which the GI50 was > 58.9 µM (inactive) in the assay with 786-0; > 75.9 µM (inactive) in the assay with BT-549; 53 µM (inactive) in the assay on CAKI-1; 13.2 µM (inactive) in the assay on EKVX; > 100 µM (inactive) with HOP-92; > 54 µM (inactive) with Hs-578T. Also, the GI50 was > 41.3 µM (inactive) in the assay with LOX IMVI; 13.5 µM (inactive) in the assay with MCF7; 62.2 µM (inactive) in the assay on MDA-MB-231; > 44.8 µM (inactive) in the assay on MDA-N; 65.3 µM (inactive) with OVCAR-4; 54.2 µM (inactive) in the assay on PC-3. For the same molecule, the GI50 is > 100 µM (inactive) in the assay with SF-295, 14.6 µM (inactive) with SR, > 100 µM (inactive) with T47D and 44.6 µM (inactive) with U-251.
In the case of `CC(OC(=O)C(Cc1ccccc1)NC(=O)C(Cc1ccccc1)NC(=O)OC(C)(C)C)C(=O)OCc1ccccc1` (stereo not drawn) (Boc-Phe-Phe-[Lac]-OBn; configuration not given here), the GI50 in the assay on BT-549 is > 100 µM (inactive); in the assay with CAKI-1 it was > 100 µM (inactive); with HOP-92, > 100 µM (inactive); in the assay with Hs-578T it was > 100 µM (inactive); with MCF7 it was 17.8 µM (inactive); in the assay with MDA-MB-231, > 100 µM (inactive). Besides, the GI50 with MDA-N, with PC-3, in the assay with SF-295, with SR, with T47D and with U-251 was > 100 µM (inactive) in each case.
In the case of `Nc1ccccc1C(=O)N/N=C1\C(=O)Nc2ccccc21`, the GI50 in the assay with 786-0 is 37.6 µM (inactive); in the assay on BT-549, 30.8 µM (inactive); in the assay on CAKI-1 it was > 100 µM (inactive); in the assay with EKVX it was > 100 µM (inactive); in the assay on Hs-578T it was 37.7 µM (inactive); in the assay with MCF7, > 100 µM (inactive). Further, the GI50 is 19.6 µM (inactive) with MDA-MB-231; > 100 µM (inactive) in the assay with MDA-N; > 100 µM (inactive) with OVCAR-4; > 100 µM (inactive) in the assay on PC-3; > 100 µM (inactive) in the assay with SF-295; > 100 µM (inactive) with SR. For the same molecule, the GI50 with T47D is > 100 µM (inactive); in the assay with U-251, 40.2 µM (inactive).
Take `COc1cc(/C=C2\N=C(c3ccccc3)N(C3Nc4cc5c(cc4S3)NC(N3C(=O)/C(=C/c4cc(OC)c(OC)c(OC)c4)N=C3c3ccccc3)S5)C2=O)cc(OC)c1OC` (stereo unspecified): the GI50 with 786-0 was 61.1 µM (inactive); with BT-549 it was 97.1 µM (inactive); in the assay on CAKI-1 it was 39.9 µM (inactive); with EKVX it was 44.1 µM (inactive); with HOP-92 it was > 100 µM (inactive); with Hs-578T, > 100 µM (inactive). Also, the GI50 with LOX IMVI is 74.1 µM (inactive); in the assay with MCF7, 46.7 µM (inactive); in the assay on MDA-MB-231, > 100 µM (inactive); with MDA-N, 74.3 µM (inactive); in the assay with OVCAR-4, 70.5 µM (inactive); in the assay with PC-3, 82.6 µM (inactive). Besides, the GI50 in the assay with SF-295 is 83.6 µM (inactive); in the assay with SR, 20.5 µM (inactive); in the assay with T47D, 56.2 µM (inactive); in the assay with U-251 it was 45.2 µM (inactive).
Consider `O=C1Nc2ccc(Cl)cc2/C1=C\c1c(Cl)nc2sccn12`, for which the GI50 is 7.57 µM (inactive) with BT-549; 18.7 µM (inactive) in the assay with CAKI-1; > 100 µM (inactive) in the assay on HOP-92; 7.48 µM (inactive) in the assay on LOX IMVI; 2.56 µM (inactive) in the assay on MDA-MB-231; 1.91 µM (inactive) in the assay with MDA-N. The GI50 in the assay on OVCAR-4 was > 100 µM (inactive); with PC-3 it was 4.93 µM (inactive); in the assay on SF-295, 3.96 µM (inactive); in the assay with SR it was 0.338 µM (active); in the assay with T47D, > 100 µM (inactive); in the assay with U-251, 2.93 µM (inactive).
Turning to `Cc1ccc(OCC2OC(n3cnc4c(Cl)nc(N)nc43)CC2Oc2ccc(C)cc2)cc1` (stereo unspecified), the GI50 in the assay with 786-0 is 55.5 µM (inactive); with BT-549, 43.3 µM (inactive); with CAKI-1, 1.76 µM (inactive); in the assay on EKVX, 9.2 µM (inactive); in the assay on HOP-92, 11 µM (inactive); with Hs-578T it was 39.4 µM (inactive). Also, the GI50 in the assay with LOX IMVI is 47.9 µM (inactive); with MCF7 it was 2.75 µM (inactive); in the assay with MDA-MB-231 it was 22.4 µM (inactive); with MDA-N, 7.93 µM (inactive); in the assay with OVCAR-4, 21.4 µM (inactive); in the assay with PC-3 it was 35.4 µM (inactive). The GI50 was 15.2 µM (inactive) in the assay on SF-295, 36 µM (inactive) in the assay with SR, 20.3 µM (inactive) in the assay with T47D and > 55.6 µM (inactive) in the assay with U-251.
For `COc1ccccc1N1C(=O)/C(=C\c2cc(OC)c(OC)c(OC)c2)SC1c1ccccc1` (stereo unspecified), the GI50 was 97.5 µM (inactive) with 786-0; 84.9 µM (inactive) in the assay on BT-549; > 100 µM (inactive) in the assay on CAKI-1; 13.2 µM (inactive) in the assay with EKVX; 22.7 µM (inactive) in the assay on HOP-92; 24 µM (inactive) in the assay on Hs-578T. The GI50 is 26.9 µM (inactive) with LOX IMVI; 18.2 µM (inactive) in the assay with MCF7; 44.8 µM (inactive) with MDA-MB-231; 15.2 µM (inactive) in the assay with MDA-N; 49.4 µM (inactive) with OVCAR-4; 23.1 µM (inactive) with SF-295. For the same molecule, the GI50 in the assay with SR is 13.3 µM (inactive); with T47D it was 36.6 µM (inactive); in the assay on U-251, 24.4 µM (inactive).
As for `CCC(=O)NC(Nc1cccc(F)c1)(C(F)(F)F)C(F)(F)F`, the GI50 is > 100 µM (inactive) in the assay on BT-549; 10.7 µM (inactive) in the assay on CAKI-1; 67.3 µM (inactive) in the assay with EKVX; > 100 µM (inactive) with HOP-92; 98.6 µM (inactive) in the assay with Hs-578T; > 100 µM (inactive) in the assay on LOX IMVI. Moreover, the GI50 in the assay on MCF7, with MDA-MB-231, in the assay on MDA-N, with OVCAR-4, in the assay on PC-3 and in the assay with SF-295 was > 100 µM (inactive) throughout. The GI50 is > 100 µM (inactive) in the assay on SR, > 100 µM (inactive) with T47D and 90.6 µM (inactive) in the assay with U-251.
On to `Cc1n[nH]c(CC#N)n1`, for which the GI50 with 786-0, in the assay with BT-549, in the assay on EKVX, in the assay on HOP-92, with LOX IMVI and with MCF7 was > 100 µM (inactive) each time. Besides, the GI50 with MDA-MB-231, in the assay with MDA-N, in the assay with OVCAR-4, with PC-3, in the assay on SF-295 and in the assay on SR was > 100 µM (inactive) throughout. For the same molecule, the GI50 in the assay with U-251 is > 100 µM (inactive).
`COc1ccccc1C(=O)c1c(NCc2ccccc2)c(=O)c1=O`: the GI50 with 786-0 is 40.2 µM (inactive); in the assay with BT-549 it was 66.8 µM (inactive); in the assay on CAKI-1 it was 35.2 µM (inactive); with EKVX, > 100 µM (inactive); with HOP-92, > 100 µM (inactive); in the assay on Hs-578T it was > 100 µM (inactive). In addition, the GI50 in the assay on LOX IMVI was 29.9 µM (inactive); in the assay with MCF7, 0.0254 µM (active); in the assay on MDA-MB-231, > 100 µM (inactive); in the assay on MDA-N it was > 100 µM (inactive); in the assay with OVCAR-4, > 100 µM (inactive); with PC-3, > 100 µM (inactive). Further, the figures for the GI50 with SF-295 and in the assay on U-251 were > 100 µM (inactive) and 66.4 µM (inactive), respectively.
For `COP(=O)(OC)C(N)Cc1c[nH]c2ccccc12` (stereo unspecified), the GI50 in the assay on CAKI-1, in the assay with Hs-578T, with LOX IMVI, with MCF7, with MDA-MB-231 and in the assay with MDA-N was > 100 µM (inactive) throughout. Further, the GI50 in the assay with OVCAR-4, in the assay on PC-3, in the assay on SF-295, in the assay on T47D and in the assay on U-251 was > 100 µM (inactive) throughout.
